Data reported in publication PMC7756666, “Non‐Stationary Complementary Non‐Uniform Sampling (NOSCO NUS) for Fast Acquisition of Serial 2D NMR Titration Data” (Angewandte Chemie (International Ed. in English), 2020).
Ends that are not written are not given here.

Molecular target: T1, SH3 domain of α‐spectrin (Gallus gallus, UniProt P07751)
T1 construct: SH3 domain of α‐spectrin, has 60 residues
Test: NMR titration (2D 1H-15N HSQC), p41 binding by SH3
Settings: system as introduced in text; pH 3.5; 8 ligand-to-protein ratios; no spread given; read-out: KD (dissociation constant)
Description: The critical information on molecular dissociation constants, K D, and chemical shift perturbation (CSP) amplitudes, Δv, can be derived by individually fitting the correlated signal frequencies, observed in the 2D protein NMR spectra of a titration series, to the equation [Eq. 1]:(1) νI=νI,0+f(x,KD)·ΔνI
where [Eq. 2](2) f(x,KD)=KD+(1+x)cP-(KD+(1+x)cP)^2-4cP2x/2cP
v I is the observed chemical shift (I=^15N or^1H ), v I,0 is the pertaining reference chemical shift in the absence of ligand; Δv I is the maximal CSP amplitude due to ligand binding; x=c L/ c P is the ligand to protein molar ratio; c P is the total protein concentration.
NMR frequency sampling in an indirect time dimension is a lengthy process (fundamental reasons described in SI). Here we propose a method for complementary non‐uniform sampling (NUS) of entire titration series of 2D ^1H‐^15N HSQC spectra within less time even than required for a single conventional spectrum. For this we sample the indirect t 1(^15N) dimension as in a standard NUS experiment, yet with complementary sampling schedules for the different titration points such that each ligand‐to‐protein ratio, x, is sampled for a unique set of t 1 times (Figure 1). A full grid of 256 t 1 increments in a titration series with 8 different x ratios would, thus, be sampled in 8 complementary schedules of 32 points. […]

T1 sequence (P07751 967-1026 limits assumed): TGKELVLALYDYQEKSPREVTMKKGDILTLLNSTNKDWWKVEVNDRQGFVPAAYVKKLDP

Kd: 9 mM
Sequence: APSYSPPPPP [p41]
